Measured values: US20090130070A1, “METHOD OF TREATMENT” (The University of Queensland, priority 2004, published 2009)

Test system: Human epidermal keratinocytes (HaCaT cells)
Test: "scrape" in vitro wound healing model (wound closure of a scraped confluent monolayer)
Type: cell-based
Details: for wound width, day 1: day 1 (24 hours); for wound width, day 2: day 2 (48 hours)
Protocol: The “scrape” in vitro wound healing model has been previously presented in the literature (Li, F. et al., 2000, Exp Cell Res., 258(2): 245-253; Firth J. D. et al., 2004, J. Invest. Dermatol., 122(1): 222-231). In this model a scrape across a confluent monolayer of cells is used to simulate a wound and the effect of agents added to serum free media is tested on the rate of closure of the gap.
Human epidermal keratinocytes (HaCaT cells) were plated at a density of 1×10^5 cells/well into Nunc 6 well plates in Dulbecco's Modified Eagle Medium (DMEM) containing 10% fetal bovine serum (FBS) benzyl penicillin (100 IU/ml), streptomycin […] confluence (2 days) monolayers were “wounded” with a 1 ml pipette tip (0.5 mm width) by scraping the tip across the centre of the well. The wells were then washed 5 times with DMEM. One ml of either DMEM with 10% FBS, DMEM or DMEM with: 3, 6, 12 or 24 mgs/ml bovine fetuin A (Sigma), 6.25, 12.5, 25 or 50 μg/ml peptide TGF peptide antagonist (Corresponding to residues 41-65 of TGFβ-1-3:—Huang S. S. et al., 1997, Journal of Biological Chemistry, 272(43):27155-27159) and 2.1, 4.2, 8.4 and 16.8 mg/ml bovine thyroglobulin was added to each well (2 replicates per plate, 4 plates). These concentrations were calculated to have equivalent antagonistic effect on the binding of TGFβ-1 to its receptor for each of the compounds. All DMEM solutions used contained benzyl penicillin (100 IU/ml), streptomycin ([…]) and fungizone (250 mg/ml). A mark was placed on the base of each well at right angles to the “wound” and the wound was photographed at the intersection of the mark and wound with a Nikon EOS 300 digital camera fitted to a JenaMed (Ziess Jena) inverted microscope (50×). Images were taken at the same positions 24 and 48 hours after addition of the treatment media. Digital images were analysed with Image Pro (Media Cybernetics) image analysis software and an image of a Nikon stage micrometer was used for calibration of length measurements. Results were summarized as the wound width after 24 and 48 hours.

[1] = 2.1 mg/ml bovine thyroglobulin in DMEM
[2] = 4.2 mg/ml bovine thyroglobulin in DMEM
[3] = 8.4 mg/ml bovine thyroglobulin in DMEM
[4] = 16.8 mg/ml bovine thyroglobulin in DMEM
[5] = 6.25 μg/ml TGF peptide antagonist in DMEM
[6] = 12.5 μg/ml TGF peptide antagonist in DMEM
[7] = 25 μg/ml TGF peptide antagonist in DMEM
[8] = 50 μg/ml TGF peptide antagonist in DMEM

Thyroglobulin: bovine thyroglobulin, comparator that binds members of the TGF-β superfamily
wound width, day 0 [1]: 0.6587
wound width, day 1 [1]: 0.413
wound width, day 2 [1]: 0.4941
wound width, day 0 [2]: 0.6428
wound width, day 1 [2]: 0.5772
wound width, day 2 [2]: 0.5393
wound width, day 0 [3]: 0.6669
wound width, day 1 [3]: 0.5742
wound width, day 2 [3]: 0.5909
wound width, day 0 [4]: 0.6152
wound width, day 1 [4]: 0.5981
wound width, day 2 [4]: 0.6132

TGFB-R inhibitor: peptide TGF peptide antagonist corresponding to residues 41-65 of TGFβ-1-3 (Huang S. S. et al., 1997) (ANFCLGPCPYIWSLDTQYSKVLALY; Transforming growth factor beta-1; UniProt P01137 319-343, looked up, fragment)
wound width, day 0 [5]: 0.6779
wound width, day 1 [5]: 0.5473
wound width, day 2 [5]: 0.4866
wound width, day 0 [6]: 0.6751
wound width, day 1 [6]: 0.5515
wound width, day 2 [6]: 0.4839
wound width, day 0 [7]: 0.6643
wound width, day 1 [7]: 0.5341
wound width, day 2 [7]: 0.4688
wound width, day 0 [8]: 0.6371
wound width, day 1 [8]: 0.554
wound width, day 2 [8]: 0.498
